Consider 25 compounds from patent US10106534B2 (CELGENE QUANTICEL RESEARCH, INC., priority 2014, dated 2018).

The target in one assay is JMJD2C (Homo sapiens (Human), UniProt Q9H3R0). In words: In vitro enzyme inhibition assay for JMJD2C activity (TR-FRET). The format is biochemical. How it is done:
This assay determines the ability of a test compound to inhibit JMJD2C demethylase activity. Baculovirus expressed JMJD2C (GenBank Accession #BC143571, AA 2-372) was purchased from BPS Bioscience (Cat#50105).
The ability of test compounds to inhibit the activity of JMJD2C was determined in 384-well plate format under the following reaction conditions: 0.3 nM JMJD2C, 300 nM H3K9me3-biotin labeled peptide (Anaspec cat #64360), 2 μM alpha-ketoglutaric acid in assay buffer of 50 mM HEPES, pH7.3, 0.005% Brij35, 0.5 mM TCEP, 0.2 mg/ml BSA, 50 μM sodium L-ascorbate, and 2 μM ammonium iron(II) sulfate. Reaction product was determined quantitatively by TR-FRET after the addition of detection reagent Phycolink Streptavidin-allophycocyanin (Prozyme) and Europium-anti-di-methylated histone H3 lysine 9 (H3K9me2) antibody (PerkinElmer) in the presence of 5 mM EDTA in LANCE detection buffer (PerkinElmer) at a final concentration of 50 nM and 1 nM, respectively.
The assay reaction was initiated by the following: 2 μl of the mixture of 900 nM H3K9me3-biotin labeled peptide and 6 μM alpha-ketoglutaric acid with 2 μl of 11-point serial diluted inhibitor in 3% DMSO were added to each well of the plate, followed by the addition of 2 μl of 0.9 nM JMJD2C to initiate the reaction. The reaction mixture was incubated at room temperature for 30 minutes, and terminated by the addition of 6 μl of 5 mM EDTA in LANCE detection buffer containing 100 nM Phycolink Streptavidin-allophycocyanin and 2 nM Europium-anti-H3K9me2 antibody. Plates were read by EnVisionMultilabel Reader in TR-FRET mode (excitation at 320 nm, emission at 615 nm and 665 nm) after 1 hour incubation at room temperature. A ratio was calculated (665/615) for each well and fitted to determine inhibition constant (IC50).

For assay [1], the system named is KYSE-150 esophageal carcinoma cell line. In words: In vitro cell-based assay: cellular proliferation via BrdU incorporation (ELISA). Also noted: species or system human. The following applies: KYSE-150, 168 hours compound incubation. The protocol:
The primary cellular assay for JMJD2C inhibition is an assay which measures cellular proliferation via Bromodeoxyuridine (BrdU) incorporation after 168 hours of compound incubation. Cell lines tested include the JMJD2C gene amplified cell line KYSE-150. This is a quantitative ELISA assay measuring DNA incorporation of BrdU during S-phase as a direct readout of cellular proliferation.
Assay Principle: This is a colorimetric immunoassay for the quantification of cell proliferation. Cells treated for 168 hours with test compounds are assayed for their ability to go through S-phase as a measure of their proliferative potential.
Assay Method: The human KYSE-150 (SMAD4 mut, TP53 mut) esophageal carcinoma cell line was seeded at 2,000 cells/well on a 96-well tissue culture treated plate. After an overnight incubation, cells were treated with compound in an 11-point dilution series with final concentrations ranging from 100 μM to 2 nM. Cells were then incubated in the presence of compound for 168 hours. After compound incubation the cells were assayed using a BrdU Cell Proliferation ELISA (Roche). The cells were first incubated with BrdU labeling reagent for 2 hours. After 2 hours, the BrdU incorporated cells were fixed and denatured, probed with an anti-BrdU-Peroxidase antibody for 1.5 hours and washed. Finally, a tetramethylbenzidine peroxidase substrate was added to each well for 15 minutes followed by a H2SO4 stop solution. The plate was read at 450 nm, and the raw optical density data was transferred into XLFit (IDBS) for IC50 calculation using the formula: fit=(D+((Vmax*(x^n))/((x^n)+(Km^n))))
On the technique in general: Dividing cells build labelled thymidine or BrdU into new DNA.

Sequence of JMJD2C (Q9H3R0 2-372): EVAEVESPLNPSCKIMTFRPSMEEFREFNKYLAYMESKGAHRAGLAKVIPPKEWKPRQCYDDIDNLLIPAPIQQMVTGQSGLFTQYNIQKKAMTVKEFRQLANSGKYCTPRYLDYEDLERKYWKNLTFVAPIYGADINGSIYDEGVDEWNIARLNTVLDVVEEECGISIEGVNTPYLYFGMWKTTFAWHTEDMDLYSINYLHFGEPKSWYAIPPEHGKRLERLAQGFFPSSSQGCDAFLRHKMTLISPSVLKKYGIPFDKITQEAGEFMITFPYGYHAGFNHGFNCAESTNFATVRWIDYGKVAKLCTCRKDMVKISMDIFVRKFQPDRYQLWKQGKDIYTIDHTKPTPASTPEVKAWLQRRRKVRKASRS

Usually IC50 stands for the concentration that inhibits the measured activity by half. Low readings indicate higher potency, high ones lower potency. Take “3-({[(1R)-6-[cyclopentyl(methyl)amino]-1,2,3,4-tetrahydronaphthalen-1-yl]methyl}amino)pyridine-4-carboxylic acid [Example 133]”: the IC50 at JMJD2C lay within 100 to 1000 nM; in assay [1], 1000 to 10000 nM.

For the compound “3-({[(1R)-6-[methyl(2-methyl-1,3-thiazol-4-yl)amino]-1,2,3,4-tetrahydronaphthalen-1-yl]methyl}amino)pyridine-4-carboxylic acid [Example 139]”, the figures for the IC50 (against JMJD2C; in assay [1]) were 100 to 1000 nM and not above 100 nM, respectively. In assay [1] (Homo sapiens), `C[C@@H](O)c1ccc(N(C)c2ccc3c(c2)CCC[C@H]3CNc2cnccc2C(=O)O)cc1` (single isomer, unassigned) [Example 168] displayed an IC50 not above 100 nM. The compound `C[C@H](O)c1ccc(N(C)c2ccc3c(c2)CCC[C@H]3CNc2cnccc2C(=O)O)cc1` (single isomer, unassigned) [Example 169] displayed an IC50 in assay [1] (Homo sapiens) not above 100 nM.

Take `O=C(O)c1ccncc1NCC1CCCc2cc(N3CCCC3=O)ccc21` (stereo not shown) [Example 3, 3-({[6-(2-oxopyrrolidin-1-yl)-1,2,3,4-tetrahydronaphthalen-1-yl]methyl}amino)pyridine-4-carboxylic acid]: the figures for the half-maximal inhibitory concentration (IC50) (against JMJD2C; in assay [1] (Homo sapiens)) were 100 to 1000 nM and more than 10000 nM, respectively. As for `O=C(O)c1ccncc1NCC1CCCc2cc(N3CCCc4ccccc43)ccc21` (stereo not shown) [Example 4, 3-({[6-(1,2,3,4-tetrahydroquinolin-1-yl)-1,2,3,4-tetrahydronaphthalen-1-yl]methyl}amino)pyridine-4-carboxylic acid], the IC50 was 1000 to 10000 nM on JMJD2C and 100 to 1000 nM in assay [1] (Homo sapiens).

Consider `O=C(O)c1ccncc1NCC1CCCc2cc(N3CCc4ccccc43)ccc21` (stereo not shown) [Example 5, 3-({[6-(2,3-dihydro-1H-indol-1-yl)-1,2,3,4-tetrahydronaphthalen-1-yl]methyl}amino)pyridine-4-carboxylic acid], for which the IC50 was 1000 to 10000 nM against JMJD2C and 100 to 1000 nM in assay [1] (Homo sapiens).

For the compound `CN(c1ccc2c(c1)CCC[C@H]2CNc1cnccc1C(=O)O)c1ccccc1F` [Example 6, 3-({[(1R)-6-[(2-fluorophenyl)(methyl)amino]-1,2,3,4-tetrahydronaphthalen-1-yl]methyl}amino)pyridine-4-carboxylic acid], the IC50 was 100 to 1000 nM on JMJD2C and not above 100 nM in assay [1] (Homo sapiens). On the same counts, the results for `CN(c1cccc(F)c1)c1ccc2c(c1)CCC[C@H]2CNc1cnccc1C(=O)O` [Example 7, 3-({[(1R)-6-[(3-fluorophenyl)(methyl)amino]-1,2,3,4-tetrahydronaphthalen-1-yl]methyl}amino)pyridine-4-carboxylic acid] are 100 to 1000 nM and not above 100 nM.

Regarding `CN(c1ccc(F)cc1)c1ccc2c(c1)CCC[C@H]2CNc1cnccc1C(=O)O` [Example 8, 3-({[(1R)-6-[(4-fluorophenyl)(methyl)amino]-1,2,3,4-tetrahydronaphthalen-1-yl]methyl}amino)pyridine-4-carboxylic acid], the IC50 on JMJD2C is 100 to 1000 nM; in assay [1] (Homo sapiens), not above 100 nM. Take `CN(c1ccc(Cl)cc1)c1ccc2c(c1)CCC[C@H]2CNc1cnccc1C(=O)O` [Example 9, 3-({[(1R)-6-[(4-chlorophenyl)(methyl)amino]-1,2,3,4-tetrahydronaphthalen-1-yl]methyl}amino)pyridine-4-carboxylic acid]: the IC50 is 1000 to 10000 nM against JMJD2C and not above 100 nM in assay [1] (Homo sapiens). On the same counts, the results for `CCN(c1ccccc1)c1ccc2c(c1)CCC[C@H]2CNc1cnccc1C(=O)O` [Example 10, 3-({[(1R)-6-[ethyl(phenyl)amino]-1,2,3,4-tetrahydronaphthalen-1-yl]methyl}amino)pyridine-4-carboxylic acid] are 100 to 1000 nM and not above 100 nM. The corresponding values for `CN(c1cccnc1)c1ccc2c(c1)CCC[C@H]2CNc1cnccc1C(=O)O` [Example 12, 3-({[(1R)-6-[methyl(pyridin-3-yl)amino]-1,2,3,4-tetrahydronaphthalen-1-yl]methyl}amino)pyridine-4-carboxylic acid] are not above 100 nM and 100 to 1000 nM. On the same counts, the results for `COc1ccc(N(C)c2ccc3c(c2)CCC[C@H]3CNc2cnccc2C(=O)O)cn1` [Example 13, 3-({[(1R)-6-[(6-methoxypyridin-3-yl)(methyl)amino]-1,2,3,4-tetrahydronaphthalen-1-yl]methyl}amino)pyridine-4-carboxylic acid] are 100 to 1000 nM and 100 to 1000 nM. `O=C(O)c1ccncc1NCC1CCOc2cc(Br)ccc21` (stereo not shown) [Example 14, 3-{[(7-bromo-3,4-dihydro-2H-1-benzopyran-4-yl)methyl]amino}pyridine-4-carboxylic acid]: the IC50 is 100 to 1000 nM on JMJD2C and more than 10000 nM in assay [1] (Homo sapiens). With `O=C(O)c1ccncc1NCC1CCOc2cc(Nc3ccccc3)ccc21` (stereo not shown) [Example 15, 3-({[7-(phenylamino)-3,4-dihydro-2H-1-benzopyran-4-yl]methyl}amino)pyridine-4-carboxylic acid], the IC50 against JMJD2C is 100 to 1000 nM; in assay [1] (Homo sapiens), 1000 to 10000 nM. The corresponding values for `CN(c1ccc2c(c1)OCC[C@H]2CNc1cnccc1C(=O)O)c1ccccc1F` [Example 19, 3-({[(4R)-7-[(2-fluorophenyl)(methyl)amino]-3,4-dihydro-2H-1-benzopyran-4-yl]methyl}amino)pyridine-4-carboxylic acid] are 100 to 1000 nM and not above 100 nM.

As to `O=C(O)c1ccncc1NC[C@@H]1CCOc2cc(C3CCCCC3)ccc21` [Example 35, 3-({[(4R)-7-cyclohexyl-3,4-dihydro-2H-1-benzopyran-4-yl]methyl}amino)pyridine-4-carboxylic acid], the IC50 in assay [1] (Homo sapiens) was 1000 to 10000 nM. The compound `Cc1cccc(N(C)c2ccc3c(c2)CCC[C@H]3CNc2cnccc2C(=O)O)c1` [Example 143, 3-({[(1R)-6-[methyl(3-methylphenyl)amino]-1,2,3,4-tetrahydronaphthalen-1-yl]methyl}amino)pyridine-4-carboxylic acid] gave an IC50 against JMJD2C of 1000 to 10000 nM. The same measure, in the same setting: the figure for `O=C(O)c1ccncc1NCC1NCCc2ccccc21` (stereo not shown) [Example 149, 3-[(1,2,3,4-tetrahydroisoquinolin-1-ylmethyl)amino]pyridine-4-carboxylic acid] is 100 to 1000 nM. Same read-out and setting: for `O=C(O)c1ccncc1NC[C@@H]1CCCc2cc(N3CCCCc4ccccc43)ccc21` [Example 162, 3-({[(1R)-6-(2,3,4,5-tetrahydro-1H-1-benzazepin-1-yl)-1,2,3,4-tetrahydronaphthalen-1-yl]methyl}amino)pyridine-4-carboxylic acid] the value was 1000 to 10000 nM; for `CN(c1ccc(OC(F)(F)F)cc1)c1ccc2c(c1)CCC[C@H]2CNc1cnccc1C(=O)O` [Example 181, 3-({[(1R)-6-{methyl[4-(trifluoromethoxy)phenyl]amino}-1,2,3,4-tetrahydronaphthalen-1-yl]methyl}amino)pyridine-4-carboxylic acid], 100 to 1000 nM; for `CN(c1ccc(N2CC(F)(F)C2)cc1)c1ccc2c(c1)CCC[C@H]2CNc1cnccc1C(=O)O` [Example 195, 3-({[(1R)-6-{[4-(3,3-difluoroazetidin-1-yl)phenyl](methyl)amino}-1,2,3,4-tetrahydronaphthalen-1-yl]methyl}amino)pyridine-4-carboxylic acid], 100 to 1000 nM. On the same count and under the same terms, for `CN(c1ccc(CC2CC2)cc1)c1ccc2c(c1)OCC[C@H]2CNc1cnccc1C(=O)O` [Example 215, 3-({[(4R)-7-{[4-(cyclopropylmethyl)phenyl](methyl)amino}-3,4-dihydro-2H-1-benzopyran-4-yl]methyl}amino)pyridine-4-carboxylic acid] the value was 100 to 1000 nM; for `CN(c1ccc(C(=O)C2CC2)cc1)c1ccc2c(c1)OCC[C@H]2CNc1cnccc1C(=O)O` [Example 216, 3-({[(4R)-7-[(4-cyclopropanecarbonylphenyl)(methyl)amino]-3,4-dihydro-2H-1-benzopyran-4-yl]methyl}amino)pyridine-4-carboxylic acid], 100 to 1000 nM.
